In series [1] the test system is pupillary muscle. Briefly: Effect of benzalkonium chloride on the miotic effect of carbachol. In kind it is in vivo. The conditions noted are these: carbachol 0.025% to 0.075%. The text has this: In still further experiments, the inventors investigated the effect of benzalkonium chloride on the miotic effect of carbachol. To that end, different concentrations of BAC were employed between 0.005% and 0.02% at carbachol concentrations between 0.025% and 0.075%, and the results are shown in FIGS. 6A-6C.

In series [2] the test system is Dutch Belted Rabbits. Briefly: Pupillary diameter (pupillometry) after single ocular administration, rabbit eye model. In kind it is in vivo. On the procedure:
Study design: 3 Dutch Belted Rabbits (pigmented breed)/group received a single ocular administration of test articles (one drop per eye) at 3 concentrations (tested one week apart). After a 2-week rest period, combinations were tested. Ocular Irritation was assessed using a modified Draize test. Intraocular pressure (IOP) was measured at baseline, 1 h, 4 h, 6 h and 24 h. Pupillary Diameter was measured at baseline, 15 min, 1 h, 4 h and 6 h after dosing.
Due to the variation in pupillary diameter and IOP between rabbits and between eyes within rabbits, the data for pupillary diameter and IOP were normalized and presented with error bars (SD). A change of 15% to 20% approximates a pupillary diameter change of 1 mm. In human, a reduction of pupillary diameter of about 2 mm is clinically generally desired.

Series [3] concerns human individuals. Briefly: Miotic response (dose response, eye color) to carbachol formulations in human. The format is in vivo. The text has this: FIG. 7 is a graph depicting exemplary results for a dose response in human using a carbachol formulation according to the inventive subject matter.
FIG. 8 is a graph depicting exemplary results for miotic response in human individuals of different eye color using a 0.29% carbachol formulation according to the inventive subject matter.
FIG. 9 is a graph depicting exemplary results for miotic response in human individuals of different eye color using a 0.50% carbachol formulation according to the inventive subject matter.
FIG. 10 is a graph depicting exemplary results for miotic response in human individuals of different eye color using a 0.75% carbachol formulation according to the inventive subject matter.
To optimize the concentration of carbachol in the topical ophthalmic formulations, the inventors tested various dosages, and the table below depicts the composition for the carbachol formulations used.
Exemplary results for the miotic effect of carbachol at 0.29%, 0.50%, and 0.75% are depicted in FIG. 7.

The conditions of series [4]: known side effects; cited from earlier work.
Setting [5] is: 0.5% and 1%, one drop per eye, rabbit.

Entries after “also recorded” stand apart in the source; their conditions may differ.

In the case of “N-Alkyl-N-benzyl-N,N-dimethyl-ammonium chloride [BAC]”, the “effect of BAC on miotic effect of carbachol” value in series [1] (BAC 0.005%) is on record as “minimal effect”; in series [1] (BAC 0.01%) it was “somewhat more pronounced”; in series [1] (BAC at least 0.02%) it was “significant”.
Take `Brc1c(NC2=NCCN2)ccc2nccnc12` [Brimonidine]: in series [2] (doses tested, concentration not given, rabbit), the “effect on pupillary diameter (in words)” value is recorded as “little to no effect”.
As to `C[N+](C)(C)CCOC(N)=O` [Carbachol, carbamoylcholine], the duration of action in series [2] (carbachol doses tested, rabbit) is 2 to 4 h. In addition, the “duration of miotic efficacy” value in series [3] (0.5%, single dose) was 3 h. The “saturation of dose response” value in series [3] (tested formulations) was 0.5%.
Regarding `COc1ccc2c3c1O[C@H]1C[C@@H](O)C=C[C@@]31CCN(C)C2` [Galantamine], in series [2] (2% (high dose) alone, rabbit), the “duration of reduction in pupillary diameter” value is on record as “at least 1 h”. In series [2] (2% alone, rabbit), the “decrease in pupillary diameter” value is 1-2 mm.
In the case of `Cc1ccc(N(CC2=NCCN2)c2cccc(O)c2)cc1` [Phentolamine], in series [2] (setting [5]), the “decrease in the pupil” value is recorded as “approximately 1 mm” and the “duration of decrease in the pupil” value was “at least 6 h”. In series [2] (all doses, FIG. 1, rabbit), the “duration of reduction in pupillary diameter” value is “at least 6 h” and the “reduction in pupillary diameter (in words)” value is “a reduction in pupillary diameter occurred at all doses”.
On to `CC(=O)OC1CN2CCC1CC2` (stereo not shown) [aceclidine, 1-azabicyclo[2.2.2]octan-3-yl acetate], for which the side effects entry in series [4] is “increased salivation and bradycardia”.
Consider `CCN(C)C(=O)Oc1cccc([C@H](C)N(C)C)c1` [Rivastigmine], for which, in series [2] (1% alone, rabbit), the “decrease in pupillary diameter” value stood at 1 mm and the “effect on pupillary diameter (in words)” value was “very low effects as compared to carbachol; also recorded: performed substantially similar to Phentolamine; also recorded: desirable effect”.

The record behind these values is patent US11273141B2, “Low-dose carbachol compositions and methods for treatment of night vision disturbance” (VYLUMA INC., priority 2020, dated 2022).
